Results on one compound are retold here after patent publication US8168656B2, “Indoleacetic acid and indenacetic acid derivatives as therapeutic agents with reduced gastrointestinal toxicity” (Vanderbilt University, priority 2009, dated 2012).

The target of assay [1] is T1, wild type mCOX-2 (Mus musculus, UniProt Q05769).
T1 construct: made in house; host or cells: Sf9 insect cells (baculovirus, pVL1393)
T1 sequence (Q05769 18-604): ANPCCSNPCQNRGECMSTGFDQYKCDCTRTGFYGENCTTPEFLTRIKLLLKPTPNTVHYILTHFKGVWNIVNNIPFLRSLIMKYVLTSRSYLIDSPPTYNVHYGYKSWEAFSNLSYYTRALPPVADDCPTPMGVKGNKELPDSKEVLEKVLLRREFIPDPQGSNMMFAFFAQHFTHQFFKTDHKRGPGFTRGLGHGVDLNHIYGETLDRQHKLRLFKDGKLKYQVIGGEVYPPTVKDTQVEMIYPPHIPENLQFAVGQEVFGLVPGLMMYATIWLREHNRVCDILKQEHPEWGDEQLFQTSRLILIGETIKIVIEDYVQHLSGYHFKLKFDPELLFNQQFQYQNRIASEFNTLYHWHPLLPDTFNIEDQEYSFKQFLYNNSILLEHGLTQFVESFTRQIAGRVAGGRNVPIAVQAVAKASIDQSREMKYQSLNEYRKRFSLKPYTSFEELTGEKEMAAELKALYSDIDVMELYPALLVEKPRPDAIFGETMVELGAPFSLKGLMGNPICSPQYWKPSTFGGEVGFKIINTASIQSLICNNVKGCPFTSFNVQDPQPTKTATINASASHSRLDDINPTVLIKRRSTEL
Description: Time-dependent IC50 COX inhibition assay. It counts as biochemical, murine. The settings on record: 20 min pre-incubation, then 50 μM AA for 30 s. Here is the method:
(§1) These mutated genes were used to assemble baculoviral constructs for large-scale expression in Sf9 cells. Purification of the expressed COX-2 protein was performed through traditional cellular fractionation and classical column chromatography. Activity or inhibition assays were performed in 100 mM Tris-HCl buffer containing 500 μM phenol, with hematin-reconstituted protein. Quantification of cyclooxygenase activity was performed by monitoring substrate (arachidonate or oxygen) consumption in a thermostatted cuvette at 37° C. using a polarographic electrode with a 5300 oxygen monitor (Yellow Springs Instrument Co. Inc., Yellow Springs, Ohio, United States of America). All inhibitors and substrates were solubilized in dimethyl sulfoxide (DMSO). Activity or inhibition assays were performed in 100 mM Tris-HCl buffer containing 500 μM phenol, with hematin-reconstituted protein. Maximal reaction velocity data were obtained from the linear portion of the oxygen uptake curves, and the data were analyzed by nonlinear regression with Prism 4.0 (GraphPad Software, San Diego, Calif., United States of America).
(§2) Time-dependent inhibition reactions were performed by pre-incubating the inhibitor and enzyme for 17 minutes at 25° C., followed by 3 minutes at 37° C. prior to the addition of 50 μM [1-^14C]-AA for 30 seconds at 37° C. Assays were terminated and analyzed for substrate consumption by thin layer chromatography as previously described (Kalgutkar et al., 2000a).
(§3) Maximal reaction velocity data were obtained from the linear portion of the oxygen uptake curves, and the data were analyzed by nonlinear regression. Instantaneous inhibition assays were performed with substrate and inhibitor added prior the initiation of the reaction by addition of protein. Time-dependent screening assays were performed by pre-incubating the inhibitor and enzyme for 17 minutes at 25° C., followed by 3 minutes at 37° C. prior to the addition of 50 μM [1-^14C]-arachidonic acid (AA) for 30 seconds at 37° C.
(§4) Assays were terminated and analyzed for substrate consumption by thin layer chromatography. […] Time-dependent COX inhibition reactions were pre-incubated at 37° C. for varying lengths of time (0-30 minutes) with various concentrations of inhibitor. All reactions were performed with [1-^14C]-AA for 30 seconds at 37° C.; reactions were terminated and analyzed as described above.
(§5) The COX reaction was allowed to proceed for 30 seconds before termination.

In the next assay the target is T2, mCOX-2^V349A (Mus musculus, UniProt Q05769, V335A).
T2 construct: made in house; host or cells: Sf9 insect cells (baculovirus, pVL1393)
T2 sequence (Q05769 18-604 V335A): T1 sequence (Q05769 18-604) with V318A
Description: Time-dependent IC50 COX inhibition assay. Type of assay: biochemical, murine. Here is the method: as §1, §2, §3, §4, §5

In assay [2] the target is T1, wild type mCOX-2. Briefly: Steady-state quenching of COX intrinsic fluorescence (apo-protein). It counts as binding, murine. The procedure:
Steady-state measurements were performed at 37° C. in a 3.5 ml fluorescence cuvette with continuous stirring. […] Data were collected over 240 or 360 seconds with 2-second integration times. The reversibility of quenching was analyzed in the same manner, with subsequent addition of 50 μM AA as competitor. The ligands were dissolved in DMSO before further dilution into buffer. The organic component in the buffer was below 0.4%.
This assay provided a method to directly monitor the binding of INDO and DM-INDO to COXs. Various concentrations of INDO and DM-INDO were added to apo-proteins and the rate of fluorescence decrease was monitored over time. After the mixture reached equilibrium, 50 μM of AA was added as competitor to monitor the reversibility of binding. The kinetic data for quenching were analyzed in the same manner as those for inhibition. For clarity, the equilibrium constant for the first step of fluorescence quenching is referred to as Kd, and k2 and k−2 from the second step of quenching are represented by k′2 and k′−2, respectively.

Numbering of substitutions follows the chain as printed.

With `COc1ccc2c(c1)c(CC(=O)O)cn2C(=O)c1ccc(Cl)cc1` [DM-INDO, 2-Des-methylindomethacin], the IC50 at wild type mCOX-2 [1] is 4 µM; against mCOX-2^V349A (20 min pre-incubation, then 50 μM AA for 30 s), > 16 µM. The “inhibition in the time-dependent IC50 assay” value against mCOX-2^V349A is “less than 20%”. Also, the “k′−2^b” value at wild type mCOX-2 [2] (fluorescence increase from competition with 50 μM AA) came to 0.007 ± 0.001 s⁻¹. Besides, binding at wild type mCOX-2 [2] (fluorescence quenching) was characterised by a dissociation constant (Kd) of 16 ± 9 µM. For the same compound, the “k′2” value on wild type mCOX-2 [2] (fluorescence quenching) came to 0.16 ± 0.04 s⁻¹. The “k′−2” value at wild type mCOX-2 [2] (fluorescence quenching (decay)) came out at 0.006 ± 0.002 s⁻¹.

A word on the IC50: it is the concentration needed to halve the response being measured. A lower IC50 goes with higher potency. Broadly, the Kd is a measure of binding affinity in units of concentration. Low values mean tighter binding, high ones weaker binding.
